The source of these data is patent US12115152B2, “Pan-RAF kinase inhibitor and use thereof” (HEFEI INSTITUTES OF PHYSICAL SCIENCE, CHINESE ACADEMY OF …, priority 2019, dated 2024).

For test [1], the system named is human acute leukemia cell NB4 (expressing KRAS-A18D mutant kinase). The test is described as follows: Effect on proliferation of cancer cells, Cell Titer-Glo, 72 hours. As to conditions: NB-4. The format is cell-based. The procedure: (§1) The compounds of the present invention were tested for their effect on growth of cancer cells (Table 2), to further evaluate the compounds herein for their inhibitory effect on proliferation of cancer cells and their selectivity in inhibiting proliferation of cancer cells.
(§2) The above-mentioned BaF3-FL-BRAF-V600E mutant cell line was constructed by the method as follows. The sequence of human full-length BRAF-V600E mutant kinase region was amplified by PCR, inserted into a MSCV-Puro vector (purchased from Clontech), and stably transfected into mouse BaF3 cells by the retroviral method, and the growth factor IL-3 was removed. Eventually, a cell line dependent on a full-length BRAF-V600E protein having various mutation transferred was obtained.
(§3) In the example, solutions of the test compound in DMSO at different concentrations (0.000508 μM, 0.00152 μM, 0.00457 μM, 0.0137 μM, 0.0411 μM, 0.123 μM, 0.370 μM, 1.11 μM, 3.33 μM, 10 μM) was added to the above cells respectively. The cells were incubated for 72 hours. The number of viable cells was detected with a Cell Titer-Glo (Promega, USA) Cell Viability Assay Kit by quantifying the ATP in viable cells. The values of GI50 (unit) of the compounds of the present invention against each of the test cells were determined.

For test [2], the system named is human acute leukemia cell OCI-AML-3 (expressing NRAS-Q61L mutant kinase). Described as above. It is filed as cell-based. The settings on record: OCI-AML-3 cells. The procedure: as §1, §2, §3
The test system of test [3] is Calu-6, A375, BxPC3, HCT116, COLO205 cell transplanted tumors. Briefly: Drug efficacy in mouse transplanted tumor models. The format is in vivo. As to conditions: mouse transplanted tumor models of cancer cells expressing KRAS, BRAF or NRAS mutations, oral daily dosing.
Test [4] deals with melanoma cell A375 (expressing BRAF-V600E mutant kinase). The test is described as follows: Effect on proliferation of cancer cells, Cell Titer-Glo, 72 hours. The settings on record: Homo sapiens, A-375. It is filed as cell-based.
Test [5] has as its system colorectal cancer cell COLO205 (expressing BRAF-V600E mutant kinase). The test is described as above. As to conditions: Homo sapiens, COLO 205. It is filed as cell-based.
Test [6] concerns mouse BaF3-FL-BRAF-V600E (stably expressing full-length BRAF-V600E mutant kinase). The description is as above. It is filed as cell-based.

Structures are written as SMILES.

On to `Cc1ccc(NC(=O)c2cccc(C(F)(F)F)c2)cc1-n1cc(-c2cncc(N3CCOCC3)c2)cn1` [Example 16, N-(4-methyl-3-(4-(5-morpholinopyrid-3-yl)-1H-pyrazol-1-yl)phenyl)-3-(trifluoromethyl)benzamide], for which the GI50 in test [1] is 27 nM; in test [2], 21 nM. Further, the tumor inhibitory effect entry in test [3] was “inhibitory effect superior to the control compounds”.
In the case of `Cc1ccc(NC(=O)c2cccc(C(F)(F)F)c2)cc1-n1cc(-c2cccnc2)cn1` [compound 1, 3-trifluoromethyl-N-(4-methyl-3-(4-(pyrid-3-yl)-1H-pyrazol-1-yl)phenyl)benzamide, reference compound], the GI50 in test [1] turned out to be 83 nM; in test [2], 20 nM; in test [4], 85 nM; in test [5] it was 150 nM; in test [6], 17 nM.

In general, GI50 refers to the concentration that inhibits growth by half. A high value points to lower sensitivity of the cells.
